Assays:
Flt3L-elicited DC = experiment: Foxp3 induction by DC pre-treated with SCFA or TSA for 6 h, washed, co-cultured with naïve CD4+ T cells; format: cell-based, mouse; conditions: DC pre-treated 6 h, then agent removed
Procedure: DC were expanded in vivo by subcutaneous injection of B16 melanoma cells secreting FLT3-ligand into the left hind flank of mice as indicated. Once tumors were visible, spleens from injected animals were dissociated in RPMI 1640 medium containing 1.67 U mL-1 liberase TL (Roche) and 50 μg mL-1 DNAse I (Roche) for 20 min at 37° C. with shaking EDTA was then added at a final concentration of 5 mM to stop digestion and the resulting homogenate was processed for CD11c+ cell isolation using the MACS mouse CD11c (N418) purification kit (Miltenyi Biotec).
In vitro Foxp3 induction assays were performed by co-culturing DC with 5.5×10^4 CD4+CD44loCD62LhiCD25-naïve T cells in the presence of 1 μg ml-1 of CD3 antibody, 1 ng mL-1 TGF-β, and 100 U ml-1 IL-2, in 96-well flat-bottom plates for 4 d. For Foxp3 induction in the presence of butyrate- or TSA-pretreated DC, TGF-β was used at 0.1 ng mL-1 final concentration. In vitro induction assays in the absence of DC were performed by incubating 5.5×10^4 naïve CD4+ T cells with 1 ng mL-1 TGF-β, 100 U ml-1 IL-2, and a 1:1 cell-to-bead ratio of CD3/CD28 T activator Dynabeads (Invitrogen). For in vitro suppression assays, 4×10^4 naïve CD4+ T cells were FACS-sorted from B6 mice and cultured with graded numbers of CD4+Foxp3+ Treg cells FACS-sorted from Foxp3GFP mice treated with antibiotics and with or without butyrate, in the presence of […] irradiated T cell-depleted splenocytes and 1 μg ml-1 CD3 antibody in a 96-well round-bottom plate for 80 h. Proliferation of T cells was assessed by [3H]-thymidine incorporation during the final 8 h of culture.

LPS response genes = experiment: Gene expression in DC (microarray, Relb qPCR); format: cell-based, mouse; conditions: 6 h
Procedure: FIG. 4 depicts HDAC-inhibitory activity of butyrate decreases pro-inflammatory cytokine expression within DC to promote Treg induction: A) Histone acetylation in Flt3L-elicited DC from B6 mice treated with the indicated SCFA (500 μM) or TSA (10 nM) for 6 h followed by acid extraction of histones from isolated nuclei, SDS-PAGE and blotting with antibody for pan-acetylated H3. Total histone H3 served as a loading control; B) Induction of Foxp3 expression upon stimulation of naïve CD4+ T cells by CD3 antibody in the presence of SCFA or TSA, Flt3L-elicited DC and TGF-β; C) RelB gene expression quantified by qPCR in purified Flt3L-elicited DC from B6 mice treated for 6 h with SCFA or TSA, as in (A); and D) RelB gene expression quantified by qPCR in purified Flt3L-elicited DC from B6 mice treated with or without TSA in combination with, or in the absence of, butyrate at the indicated concentrations.
The data are shown as percent of CD4+ cells expressing Foxp3 after 4 days of culture. Data are representative of 2 independent experiments; error bars denote SEM.

dendritic cells = experiment: Treg induction by dendritic cells treated with soluble or liposome encapsulated TSA; format: cell-based; conditions: DC treated 6 hrs with soluble or liposome encapsulated TSA, washed, incubated with naïve CD4+ T cells
Text: TSA was encapsulated in lipid particles containing mixtures of lipids for release of contents only upon entry into cells. For details see Karve et al. Langmuir 2008, 24, 5679-5688. To monitor incorporation of TSA into liposomes, lipids were dissociated with hydrogenated Triton-X and monitored for increased UV absorption compared to free TSA and ‘empty’ liposomes. >85% of free TSA is incorporated into the lipid particles.
The ability of dendritic cells to induce Treg development in vitro after exposure to lipopsome encapsulated TSA was evaluated. Doubly bead-purified dendritic cells were treated for 6 hrs with soluble or liposome encapsulated TSA then washed and incubated with naïve CD4+ T cells. Pretreatment of DCs with TSA increased the generation of Foxp3+ cells relative to vehicle control (FIG. 11).

T cells = conditions: Wang et al. 2009; Tao et al. 2007; cited from earlier work

With `CC(/C=C/C(=O)NO)=C\[C@@H](C)C(=O)c1ccc(N(C)C)cc1` [TSA, trichostatin A] the “ability of pre-treated DCs to induce Foxp3 expression in naïve CD4+ T cells” value (Flt3L-elicited DC) was “potently induced”, the “expression of LPS response genes including 1112, 116, and Relb in DCs” value (LPS response genes) was “systemic repression” and the “generation of Foxp3+ cells relative to vehicle control” value (dendritic cells) was “increased”. For the same compound, the “Treg cell generation in vitro by acting on T cells” value (T cells) was “potentiates”.
